Measurements reported in US10889553B2, “Asymmetric triazole benzamide derivatives and the compositions and methods of treatment regarding the same” (NysnoBio Ireland DAC, priority 2017, dated 2021).
Read-outs that look alike come from different tables or passages of the source.

Columns and labels:
HCT-116 (colon) = assay: Cancer cell proliferation assay (acid phosphatase); type: cell-based; conditions: Table 6A, 72 hrs, read-out: HCT-116 IC50
Description: (§1) Measurement of the inhibitive effect of compounds on cancer cell proliferation was performed. Various cell lines were tested, including HCT-116 (colon); A549 (lung); TOV-21G (ovarian); Calu-6 (lung); and LS-174T (colon); and cell lines H1703 (Lung) and SKOV3 (ovarian); JEKO-1 (lymophoma); TOV-112D (ovarian) are tested. The assays were performed under the following conditions: Cells are harvested at a concentration of 4×10^4 cells/ml in media. Volumes of 100 μl/well of these cell suspensions were added to a 96 well plate using a multichannel pipette. Plates were gently agitated to ensure an even dispersion of cells over a given plate. Cells were then incubated at 37° C., 5% CO2 overnight. Following this, 100 μl of compound at varying concentrations was added to wells in triplicate. Control wells are those with 100 μl media containing 0.33% DMSO added to cell suspension (this is the equivalent volume of DMSO found in the highest concentration of drug). Plates were then gently agitated, as above, and incubated at 37° C., 5% CO2 for 72 hrs (control wells have reached 80-90% confluency). Assessment of cell proliferation in the presence of the compound was determined by the acid phosphatase assay.
(§2) Following the incubation period of 72 hrs, media was removed from the plates. Each well on the plate was washed twice with 100 μl PBS. This was then removed and 100 μl of freshly prepared phosphatase substrate (10 mM p-nitrophenol phosphate in 0.1M sodium acetate, 0.1% triton X-100, pH 5.5) was added to each well. The plates were then incubated in the dark at 37° C. for 2 hours. Colour development was monitored during this time. The enzymatic reaction was stopped by the addition of 50 μl of 1N NaOH. The plate was read in a dual beam plate reader at 405 nm with a reference wavelength of 620 nm. The absorbance reading of the latter is subtracted from the former, and the effect of the drug on cell proliferation was then measured as a percentage against the control cells (DMSO), which is taken as 0% inhibition.

TOV-21G (ovarian) = assay: Cancer cell proliferation assay (acid phosphatase); type: cell-based; conditions: Table 6A, 72 hrs, read-out: TOV-21G IC50
Description: as §1, §2

A549 (lung) = assay: Cancer cell proliferation assay (acid phosphatase); type: cell-based; conditions: Table 6A, 72 hrs, read-out: A549 IC50
Description: as §1, §2

Parkin ligase = biological target: T1, Parkin ligase (Homo sapiens, UniProt O60260); assay: Activity-Based Probe Assay using Ubiquitin vinyl sulfone probe (TR-FRET); type: biochemical; conditions: heat activated Parkin, HA-Ub-VS probe, activation EC50; read-out: Probe Assay EC50 (μM) [Example 2]
T1 sequence (O60260 1-465): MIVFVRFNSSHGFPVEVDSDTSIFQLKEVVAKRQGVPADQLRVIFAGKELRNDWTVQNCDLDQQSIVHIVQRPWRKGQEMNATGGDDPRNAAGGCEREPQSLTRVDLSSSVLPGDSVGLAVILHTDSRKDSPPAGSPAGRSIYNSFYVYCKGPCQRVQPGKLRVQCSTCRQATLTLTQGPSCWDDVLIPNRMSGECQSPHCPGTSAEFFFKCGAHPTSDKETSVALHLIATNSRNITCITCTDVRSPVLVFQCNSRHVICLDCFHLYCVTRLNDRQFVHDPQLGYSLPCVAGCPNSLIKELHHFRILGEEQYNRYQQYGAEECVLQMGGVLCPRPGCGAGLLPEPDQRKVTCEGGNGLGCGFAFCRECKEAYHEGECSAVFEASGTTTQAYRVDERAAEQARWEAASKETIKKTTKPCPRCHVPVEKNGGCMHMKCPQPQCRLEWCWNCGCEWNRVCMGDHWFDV
Procedure, shortened: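 Heat-activated His-Parkin (5 min, 58 °C; 40 nM) was preincubated 15 min with compound, then reacted 60 min at 22 °C with 70 nM HA-Ub-VS in 50 mM HEPES pH 8.5, 150 mM NaCl, 0.01% Tween 20, 0.1% BSA. Probe labelling was read by anti-His-Eu/anti-HA-XL665 TR-FRET (665/615 ratio). % activation was normalized to DMSO and 100 nM control activator, then fitted with a four-parameter curve (Bottom=0, Top=100).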

[1] = Microsomal stability assay, rat liver microsomes; type: in vitro ADME; conditions: pH 7.4; rat liver microsomes 1.0 mg/mL, 1 μM compound, NADPH; read-out: RLM t1/2
Description: (§3) Compounds were also tested for metabolic stability in both rat liver microsomes (RLM) and the compounds are tested for human liver microsomes (HLM) and their half-life is calculated (See Tables 5A and 5B). The assay was performed as follows. The total volume for each incubation was 250 μL. A 100 μM DMSO solution of compound (diluted from 10 mM stock solution) was spiked into 50 mM KH2PO4 (pH 7.4) buffer containing liver microsome at a concentration of 1.0 mg/mL. The reaction was initiated by the addition of 50 μL of 1 mM NADPH. The final concentration of each compound was 1 μM (1% DMSO). The positive controls, phenacetin for CYP1A2, diclofenac for CYP2C9, omeprazole for CYP2C19, dextromethorphan for CYP2D6 and midazolam for CYP3A4 were added to a separate tube with the final substrate concentrations of 1 μM (1% DMSO) for evaluating the enzyme activities in the liver microsomes. At 0, 15, 30 and 60 min, an aliquot of 15 μL reaction mixtures were removed and 200 μL of methanol (with internal standard of 25 ng/mL propranolol) was added to quench the reaction. The resulting mixture was centrifuged and supernatant was used for LC-MS/MS analysis.
(§4) The signals for each compound, or the metabolites for the probe substrates and the internal standard were integrated and the peak area ratios to internal standard were generated. Percent parent remaining at a specified timepoint was calculated based on the peak area ratios at time 0 (as 100%) for in vitro metabolic stability studies in liver microsome and hepatocyte. The observed rate constant (kobs) for the metabolism of substrates was calculated by plotting the natural log of percentage substrate remaining versus time of incubation with the slope being kobs. The half-life (T1/2) was calculated according to the following equation: T1/2=[…]

JEKO-1 (lymophoma) = assay: Cancer cell proliferation assay (acid phosphatase); type: cell-based; conditions: Homo sapiens, Table 6B, 72 hrs, read-out: JEKO-1 IC50
Description: as §1, §2

TOV-112D (ovarian) = assay: Cancer cell proliferation assay (acid phosphatase); type: cell-based; conditions: Homo sapiens, TOV112D; Table 6B; 72 hrs; read-out: TOV-112D IC50
Description: as §1, §2

[2] = Microsomal stability assay, human liver microsomes; type: in vitro ADME; conditions: pH 7.4; human liver microsomes 1.0 mg/mL, 1 μM compound, NADPH; read-out: HLM t1/2
Description: as §3, §4

LS-174T (colon) = assay: Cancer cell proliferation assay (acid phosphatase); type: cell-based; conditions: Homo sapiens, LS174T; Table 6A; 72 hrs
Description: as §1, §2

IC50 (HCT-116 (colon); Homo sapiens, HCT-116, 72 h) | IC50 (TOV-21G (ovarian); Homo sapiens, TOV21G, 72 h) | IC50 (A549 (lung); Homo sapiens, A549, 72 h) | EC50 (Parkin ligase) | SMILES | also measured
240 nM |  |  |  | Cc1ccccc1C(=O)Nc1nc(-c2ccccc2O)nn1-c1ccc(C(F)(F)F)cc1 [Compound 156] | half-life at 1 μM [1]: 0.395 h; IC50 (JEKO-1 (lymophoma)): 80 nM; IC50 (TOV-112D (ovarian)): 40 nM; half-life at 1 μM [2]: 2.63 h
240 nM |  |  |  | Cc1ccccc1C(=O)Nc1nc(-c2ccccc2O)nn1-c1ccc(Cl)cc1 [Compound 155] | half-life at 1 μM [1]: 0.29 h; IC50 (JEKO-1 (lymophoma)): 40 nM; IC50 (TOV-112D (ovarian)): 40 nM; half-life at 1 μM [2]: 1.06 h
350 nM |  |  |  | Cc1ccccc1C(=O)Nc1nc(-c2ccccc2O)nn1-c1cccc(F)c1 [Compound 157] | half-life at 1 μM [1]: 0.275 h; IC50 (JEKO-1 (lymophoma)): 80 nM; IC50 (TOV-112D (ovarian)): 120 nM; half-life at 1 μM [2]: 0.7 h
300 nM |  |  |  | Cc1ccc(O)c(-c2nc(NC(=O)c3ccccc3C)n(-c3ccc(OC(F)(F)F)cc3)n2)c1 [Compound 159] | half-life at 1 μM [1]: 2.63 h; IC50 (JEKO-1 (lymophoma)): 90 nM; IC50 (TOV-112D (ovarian)): 60 nM; half-life at 1 μM [2]: 2.97 h
240 nM |  |  |  | Cc1ccccc1C(=O)Nc1nc(-c2cc(Cl)ccc2O)nn1-c1ccc(OC(F)(F)F)cc1 [Compound 158] | half-life at 1 μM [1]: 2.82 h; IC50 (JEKO-1 (lymophoma)): 200 nM; IC50 (TOV-112D (ovarian)): 190 nM; half-life at 1 μM [2]: 2.75 h
> 2500 nM |  |  |  | COc1ccccc1-c1nc(NC(=O)c2ccccc2C)n(-c2ccc(OC(F)(F)F)cc2)n1 [Compound 154] | half-life at 1 μM [1]: 1.7 h; half-life at 1 μM [2]: 2.22 h
2000 nM | 2300 nM | 2300 nM |  | Cc1cccc(C(=O)Nc2nc(NC(=O)c3cccc(C)c3)n(-c3ccccc3)n2)c1 [Compound F3] | 
400 nM | 500 nM | 300 nM | 1 µM | Cc1ccccc1C(=O)Nc1nc(-c2ncccc2C)nn1-c1cccc(F)c1 [Compound 146] | 

Continued, compound first:

SMILES | IC50 (HCT-116 (colon); Homo sapiens, HCT-116, 72 h) | IC50 (TOV-21G (ovarian); Homo sapiens, TOV21G, 72 h) | IC50 (A549 (lung); Homo sapiens, A549, 72 h) | EC50 (Parkin ligase) | also measured
Cc1ccccc1C(=O)Nc1nc(-c2cccc(F)n2)nn1-c1ccc(C(F)(F)F)cc1 [Compound 131] | 2300 nM | 2200 nM | 2300 nM | 2 µM | 
Cc1ccccc1C(=O)Nc1nc(NC(=O)c2ccno2)n(-c2ccc(C(F)(F)F)cc2)n1 [Compound 75] | 2400 nM |  | 2500 nM | 4 µM | IC50 (LS-174T (colon)): 1000 nM
Cc1ccccc1C(=O)Nc1nc(NC(=O)c2ccccc2C)n(-c2ccc(N3CCN(C(=O)OC(C)(C)C)CC3)cc2)n1 [Compound 59] | 801000 nM |  | 810000 nM | 3 µM | IC50 (TOV-21G (ovarian); Homo sapiens, TOV21G, 72 h, heading: TOV-21G IC50): 938 nM
Cc1cccc(-c2nc(NC(=O)c3ccccc3C)n(-c3ccc(C(F)(F)F)cc3)n2)n1 [Compound 133] | 2300 nM | 1800 nM | 2500 nM | 1 µM | 
Cc1ccccc1C(=O)Nc1nc(-c2cccc(F)n2)nn1-c1ccc(Cl)cc1 [Compound 134] | 2300 nM | 1800 nM | 2600 nM | 4 µM | 
Cc1ccccc1C(=O)Nc1nc(NCc2ccccc2Cl)nn1-c1ccc(OC(F)(F)F)cc1 [Compound 116] | > 2500 nM | > 2500 nM | > 2500 nM | 2 µM | 
Cc1ccccc1C(=O)Nc1nc(-c2cccc(F)n2)nn1-c1cccc(F)c1 [Compound 132] |  |  |  | 3 µM | IC50 (HCT-116 (colon)): 2200 nM; IC50 (TOV-21G (ovarian)): 1900 nM; IC50 (A549 (lung)): 2400 nM
Cc1ccccc1C(=O)Nc1nc(NCc2ccccc2)nn1-c1ccc(Cl)cc1 [Compound 108] | > 2500 nM | > 2500 nM | > 2500 nM | 1.5 µM | 
Cc1ccccc1C(=O)Nc1nc(-c2cccc(F)n2)nn1-c1ccc(OC(F)(F)F)cc1 [Compound 129] | 2400 nM | 2000 nM | 2500 nM | 3 µM | 
O=C(Nc1nc(NC(=O)c2cccnc2)n(-c2ccc(C(F)(F)F)cc2)n1)c1cccnc1 [Compound 62] | 2700 nM |  | 2000 nM | 8 µM | 
Cc1ccccc1C(=O)Nc1nc(-c2cccc(F)n2)nn1-c1cccc(F)c1 [Compound 128] | 2500 nM | 2400 nM | 2500 nM | 5 µM | 
Cc1cccc(-c2nc(NC(=O)c3ccccc3C)n(-c3ccc(OC(F)(F)F)cc3)n2)n1 [Compound 126] | 1700 nM | 1900 nM | 1400 nM | 2 µM | IC50 (LS-174T (colon)): 1000 nM
Cc1ccccc1C(=O)Nc1nc(NC(=O)c2ccno2)n(-c2ccc(OC(F)(F)F)cc2)n1 [Compound 71] | 2500 nM |  | 2400 nM | 3 µM | 
Cc1ccccc1C(=O)Nc1nc(NC(=O)c2ccccc2C)n(-c2ccc(N3CCC3)cc2)n1 [Compound 64] | 2300 nM | 2400 nM | 2400 nM | 8 µM | IC50 (LS-174T (colon)): 2600 nM
Cc1cccc(-c2nc(NC(=O)c3ccccc3C)n(-c3ccc(Cl)cc3)n2)n1 [Compound 127] | 1700 nM | 2100 nM | 1100 nM | 2 µM | IC50 (LS-174T (colon)): 1600 nM
